Measurements as given in ChEMBL document CHEMBL3352057, “Novel fluorinated pyrrolo[1,2-a]pyrazine-2,6-dione derivatives: synthesis and anticonvulsant evaluation in animal models of epilepsy” (Bioorg Med Chem, 2014).
Active and inactive are the calls of the source. The calls are words filed in the database; no cut-off is given here.

Experiments:
[1] = system: Mus musculus; assay: Anticonvulsant activity in albino CF1 mouse assessed as protection against maximal electroshock-induced seizures at 100 mg/kg, ip measured after 0.5 hr; format: functional, organism-based; parameters: dose 100 mg/kg
[2] = system: Mus musculus; assay: Neurotoxicity in 32 mA current-induced seizure albino CF1 mouse model at 100 mg/kg, ip measured after 0.5 hr; format: toxicity, organism-based; parameters: dose 100 mg/kg, route intraperitoneal; conditions: in vivo
[3] = system: Mus musculus; assay: Neurotoxicity in albino CF1 mouse assessed as loss of righting reflex at 100 mg/kg, ip measured after 0.25 hr; format: toxicity, organism-based; parameters: dose 100 mg/kg, route intraperitoneal; conditions: in vivo
[4] = system: Rattus norvegicus; assay: Neurotoxicity in MES Sprague-Dawley rat model at 30 mg/kg, po measured after 2 hrs; format: toxicity, organism-based; parameters: dose 30 mg/kg, route oral; conditions: in vivo
[5] = system: Rattus norvegicus; assay: Anticonvulsant activity in pilocarpine-induced status prevention Sprague-Dawley rat model assessed as weight change 24 hrs post-first stage 3 seizure of non-protected rat at 200 mg/kg, ip measured after 0.5 hr; format: functional; conditions: route intraperitoneal
[6] = system: Rattus norvegicus; assay: Neurotoxicity in MES Sprague-Dawley rat model at 30 mg/kg, ip measured after 2 hrs; format: toxicity, organism-based; parameters: dose 30 mg/kg, route intraperitoneal; conditions: in vivo
[7] = system: Mus musculus; assay: Anticonvulsant activity in albino CF1 mouse assessed as protection against 32 mA current-induced seizures at 100 mg/kg, ip measured after 4 hrs; format: functional, organism-based; parameters: dose 100 mg/kg
[8] = system: Mus musculus; assay: Neurotoxicity in 32 mA current-induced seizure albino CF1 mouse model at 100 mg/kg, ip measured after 0.25 hr; format: toxicity, organism-based; parameters: dose 100 mg/kg, route intraperitoneal; conditions: in vivo
[9] = system: Mus musculus; assay: Neurotoxicity in 32 mA current-induced seizure albino CF1 mouse model at 100 mg/kg, ip measured after 2 hrs; format: toxicity, organism-based; parameters: dose 100 mg/kg, route intraperitoneal; conditions: in vivo
[10] = system: Mus musculus; assay: Anticonvulsant activity in albino CF1 mouse assessed as protection against subcutaneous metrazol-induced seizures at 300 mg/kg, ip measured after 0.5 hr; format: functional, organism-based; parameters: dose 300 mg/kg
[11] = system: Mus musculus; assay: Neurotoxicity in 32 mA current-induced seizure albino CF1 mouse model at 100 mg/kg, ip measured after 4 hrs; format: toxicity, organism-based; parameters: dose 100 mg/kg, route intraperitoneal; conditions: in vivo
[12] = system: Mus musculus; assay: Anticonvulsant activity in albino CF1 mouse assessed as protection against 32 mA current-induced seizures at 100 mg/kg, ip measured after 2 hrs; format: functional, organism-based; parameters: dose 100 mg/kg
[13] = system: Mus musculus; assay: Neurotoxicity in albino CF1 mouse at 100 mg/kg, ip measured after 0.5 hr; format: toxicity, organism-based; parameters: dose 100 mg/kg, route intraperitoneal; conditions: in vivo
[14] = system: Rattus norvegicus; assay: Anticonvulsant activity in Sprague-Dawley rat assessed as protection against maximal electroshock-induced seizures at 30 mg/kg, po measured after 0.25 hr; format: functional, organism-based; parameters: dose 30 mg/kg
[15] = system: Rattus norvegicus; assay: Neurotoxicity in MES Sprague-Dawley rat model at 30 mg/kg, ip measured after 4 hrs; format: toxicity, organism-based; parameters: dose 30 mg/kg, route intraperitoneal; conditions: in vivo
[16] = system: Mus musculus; assay: Anticonvulsant activity in albino CF1 mouse assessed as protection against 32 mA current-induced seizures at 100 mg/kg, ip measured after 0.5 hr; format: functional, organism-based; parameters: dose 100 mg/kg
[17] = system: Rattus norvegicus; assay: Neurotoxicity in MES Sprague-Dawley rat model at 30 mg/kg, po measured after 4 hrs; format: toxicity, organism-based; parameters: dose 30 mg/kg, route oral; conditions: in vivo
[18] = system: Mus musculus; assay: Anticonvulsant activity in albino CF1 mouse assessed as protection against subcutaneous metrazol-induced seizures at 100 mg/kg, ip measured after 0.5 hr; format: functional, organism-based; parameters: dose 100 mg/kg
[19] = system: Rattus norvegicus; assay: Neurotoxicity in MES Sprague-Dawley rat model at 30 mg/kg, po measured after 1 hr; format: toxicity, organism-based; parameters: dose 30 mg/kg, route oral; conditions: in vivo
[20] = Neurotoxicity in ip dosed albino CF1 mouse; format: toxicity, organism-based; conditions: in vivo
[21] = system: Mus musculus; assay: Anticonvulsant activity in albino CF1 mouse assessed as protection against maximal electroshock-induced seizures at 100 mg/kg, ip measured after 0.25 hr; format: functional, organism-based; parameters: dose 100 mg/kg
[22] = system: Rattus norvegicus; assay: Anticonvulsant activity in Sprague-Dawley rat assessed as protection against maximal electroshock-induced seizures at 30 mg/kg, po measured after 1 hr; format: functional, organism-based; parameters: dose 30 mg/kg
[23] = system: Mus musculus; assay: Anticonvulsant activity in ip dosed albino CF1 mouse assessed as protection against 32 mA current-induced seizures; format: functional
[24] = system: Mus musculus; assay: Anticonvulsant activity in ip dosed albino CF1 mouse assessed as protection against maximal electroshock-induced seizures measured as time to peak effect; format: functional
[25] = system: Mus musculus; assay: Anticonvulsant activity in albino CF1 mouse assessed as protection against subcutaneous metrazol-induced seizures at 100 mg/kg, ip measured after 4 hrs; format: functional, organism-based; parameters: dose 100 mg/kg
[26] = system: Mus musculus; assay: Anticonvulsant activity in albino CF1 mouse assessed as protection against maximal electroshock-induced seizures at 100 mg/kg, ip measured after 4 hrs; format: functional, organism-based; parameters: dose 100 mg/kg
[27] = system: Mus musculus; assay: Anticonvulsant activity in ip dosed albino CF1 mouse assessed as protection against 6 Hz current-induced seizures measured as time to peak effect; format: functional
[28] = system: Rattus norvegicus; assay: Anticonvulsant activity in Sprague-Dawley rat assessed as protection against maximal electroshock-induced seizures at 30 mg/kg, po measured after 0.5 hr; format: functional, organism-based; parameters: dose 30 mg/kg
[29] = system: Rattus norvegicus; assay: Anticonvulsant activity in Sprague-Dawley rat assessed as protection against maximal electroshock-induced seizures at 30 mg/kg, ip measured after 0.5 hr; format: functional, organism-based; parameters: dose 30 mg/kg
[30] = Neurotoxicity in ip dosed albino CF1 mouse measured at 0.25 hr post dose; format: toxicity, organism-based; conditions: in vivo
[31] = system: Rattus norvegicus; assay: Neurotoxicity in MES Sprague-Dawley rat model at 30 mg/kg, po measured after 0.25 hr; format: toxicity, organism-based; parameters: dose 30 mg/kg, route oral; conditions: in vivo
[32] = system: Rattus norvegicus; assay: Anticonvulsant activity in Sprague-Dawley rat assessed as protection against maximal electroshock-induced seizures at 30 mg/kg, ip measured after 4 hrs; format: functional, organism-based; parameters: dose 30 mg/kg
[33] = system: Mus musculus; assay: Neurotoxicity in 32 mA current-induced seizure albino CF1 mouse model at 100 mg/kg, ip measured after 1 hr; format: toxicity, organism-based; parameters: dose 100 mg/kg, route intraperitoneal; conditions: in vivo
[34] = system: Mus musculus; assay: Anticonvulsant activity in ip dosed albino CF1 mouse assessed as protection against maximal electroshock-induced seizures; format: functional
[35] = system: Rattus norvegicus; assay: Neurotoxicity in MES Sprague-Dawley rat model at 30 mg/kg, ip measured after 0.25 hr; format: toxicity, organism-based; parameters: dose 30 mg/kg, route intraperitoneal; conditions: in vivo
[36] = Protective index, ratio of TD50 for neurotoxicity in ip dosed albino CF1 mouse to ED50 for anticonvulsant activity in ip dosed MES albino CF1 mouse model; format: toxicity, organism-based; conditions: in vivo, read-out: Ratio TD50/ED50
[37] = system: Mus musculus; assay: Neurotoxicity in albino CF1 mouse at 100 mg/kg, ip measured after 1 hr; format: toxicity, organism-based; parameters: dose 100 mg/kg, route intraperitoneal; conditions: in vivo
[38] = system: Mus musculus; assay: Anticonvulsant activity in albino CF1 mouse assessed as protection against 32 mA current-induced seizures at 100 mg/kg, ip measured after 0.25 hr; format: functional, organism-based; parameters: dose 100 mg/kg
[39] = system: Rattus norvegicus; assay: Anticonvulsant activity in Sprague-Dawley rat assessed as protection against maximal electroshock-induced seizures at 30 mg/kg, po measured after 4 hrs; format: functional, organism-based; parameters: dose 30 mg/kg
[40] = system: Rattus norvegicus; assay: Anticonvulsant activity in Sprague-Dawley rat assessed as protection against maximal electroshock-induced seizures at 30 mg/kg, ip measured after 0.25 hr; format: functional, organism-based; parameters: dose 30 mg/kg
[41] = system: Mus musculus; assay: Anticonvulsant activity in albino CF1 mouse assessed as protection against 32 mA current-induced seizures at 100 mg/kg, ip measured after 1 hr; format: functional, organism-based; parameters: dose 100 mg/kg
[42] = system: Rattus norvegicus; assay: Neurotoxicity in MES Sprague-Dawley rat model at 30 mg/kg, po measured after 0.5 hr; format: toxicity, organism-based; parameters: dose 30 mg/kg, route oral; conditions: in vivo
[43] = system: Mus musculus; assay: Anticonvulsant activity in ip dosed corneal kindled albino CF1 mouse seizure model assessed as time to peak effect; format: functional
[44] = system: Mus musculus; assay: Anticonvulsant activity in albino CF1 mouse assessed as protection against maximal electroshock-induced seizures at 100 mg/kg, ip measured after 1 hr; format: functional, organism-based; parameters: dose 100 mg/kg
[45] = system: Rattus norvegicus; assay: Anticonvulsant activity in Sprague-Dawley rat assessed as protection against maximal electroshock-induced seizures at 30 mg/kg, ip measured after 2 hrs; format: functional, organism-based; parameters: dose 30 mg/kg
[46] = system: Mus musculus; assay: Anticonvulsant activity in ip dosed corneal kindled albino CF1 mouse seizure model; format: functional
[47] = system: Rattus norvegicus; assay: Neurotoxicity in MES Sprague-Dawley rat model at 30 mg/kg, ip measured after 0.5 hr; format: toxicity, organism-based; parameters: dose 30 mg/kg, route intraperitoneal; conditions: in vivo
[48] = system: Rattus norvegicus; assay: Neurotoxicity in MES Sprague-Dawley rat model at 30 mg/kg, ip measured after 1 hr; format: toxicity, organism-based; parameters: dose 30 mg/kg, route intraperitoneal; conditions: in vivo
[49] = system: Rattus norvegicus; assay: Anticonvulsant activity in Sprague-Dawley rat assessed as protection against maximal electroshock-induced seizures at 30 mg/kg, po measured after 2 hrs; format: functional, organism-based; parameters: dose 30 mg/kg
[50] = system: Rattus norvegicus; assay: Anticonvulsant activity in Sprague-Dawley rat assessed as protection against maximal electroshock-induced seizures at 30 mg/kg, ip measured after 1 hr; format: functional, organism-based; parameters: dose 30 mg/kg
[51] = system: Mus musculus; assay: Anticonvulsant activity in ip dosed albino CF1 mouse assessed as protection against subcutaneous metrazol-induced seizures; format: functional
[52] = system: Rattus norvegicus; assay: Anticonvulsant activity in pilocarpine-induced status prevention Sprague-Dawley rat model assessed as weight change 24 hrs post-first stage 3 seizure of protected rat at 200 mg/kg, ip; format: functional; conditions: route intraperitoneal
[53] = system: Mus musculus; assay: Neurotoxicity in albino CF1 mouse at 100 mg/kg, ip measured after 4 hrs; format: toxicity, organism-based; parameters: dose 100 mg/kg, route intraperitoneal; conditions: in vivo
[54] = system: Mus musculus; assay: Neurotoxicity in albino CF1 mouse at 100 mg/kg, ip measured after 0.25 hr; format: toxicity, organism-based; parameters: dose 100 mg/kg, route intraperitoneal; conditions: in vivo

## Cl.O=C1NC(=O)[C@@H]2CCCN2[C@H]1c1cccc(C(F)(F)F)c1
[1]
  Activity: inactive
[2]
  Activity: Non-toxic
[3]
  Activity: Toxic
[4]
  Activity: Non-toxic
[5]
  Activity: -25 g
[6]
  Activity: Non-toxic
[7]
  Activity: inactive
[8]
  Activity: Non-toxic
[9]
  Activity: Non-toxic
[10]
  Activity: Active
[11]
  Activity: Non-toxic
[12]
  Activity: inactive
[13]
  Activity: Non-toxic
[14]
  Activity: inactive
[15]
  Activity: Non-toxic
[16]
  Activity: Active
[17]
  Activity: Non-toxic
[18]
  Activity: inactive
[19]
  Activity: Non-toxic
[20]
  TD50: 269 µmol/kg
[21]
  Activity: Active
[22]
  Activity: inactive
[23]
  ED50: 119 µmol/kg
[24]
  Time: 0.25 h
[25]
  Activity: inactive
[26]
  Activity: inactive
[27]
  Time: 0.5 h
[28]
  Activity: inactive
[29]
  Activity: inactive
[30]
  TD50 at 0.25 h: 166 µmol/kg
[31]
  Activity: Non-toxic
[32]
  Activity: inactive
[33]
  Activity: Non-toxic
[34]
  ED50: 165 µmol/kg
[35]
  Activity: Non-toxic
[36]
  selectivity ratio: 1.6
[37]
  Activity: Non-toxic
[38]
  Activity: Active
[39]
  Activity: inactive
[40]
  Activity: inactive
[41]
  Activity: inactive
[42]
  Activity: Non-toxic
[43]
  Time: 0.25 h
[44]
  Activity: Active
[45]
  Activity: inactive
[46]
  ED50: 116 µmol/kg
[47]
  Activity: Non-toxic
[48]
  Activity: Non-toxic
[49]
  Activity: inactive
[50]
  Activity: inactive
[51]
  ED50: 218 µmol/kg
[52]
  Activity: -3.8 g
[53]
  Activity: Non-toxic
[54]
  Activity: Toxic
